From US11261201B2 (priority 2018, dated 2022)
Converted amounts (≈) assume the structure as drawn. Where two headings read alike, the source gives them in different places.

Assays:
H37RvMA = assay: Tuberculosis Alamar Blue/Resazurin assay (MIC); format: cell-based; details: Mycobacterium tuberculosis, H37RV, WT H37Rv MTB; read-out: WT H37Rv MTB Activity
E. coli = assay: Gram negative MIC protocol (OD600, LB, 24 h); details: Escherichia coli
Experimental: (§1) Overnight bacterial cultures were grown in LB with no added antibiotics at 37° C. with shaking. A 1:1000 dilution of these cultures into LB was exposed to concentration gradients of compounds in 96-well plates (100 μL per well assay volume). Resulting plates were incubated at 37° C. for 24 h without shaking, and OD600 was measured at the end of the incubation. MICs were determined as the lowest concentrations at which OD600 remained at baseline.

A. baumannii = assay: Gram negative MIC protocol (OD600, LB, 24 h); details: Acinetobacter baumannii, read-out: MIC A. baumannii LB Media, A. baumannii, LB media, 24 h, OD600
Experimental: as §1

[1] = read-out: MIC E. coli delta-TolC LB Media, E. coli delta-TolC strain, LB media, 24 h, OD600
[2] = read-out: MIC WT E. coli LB Media, wild-type E. coli, LB media, 24 h, OD600

Compound: CC(CC1CCCCC1)NCc1ccccc1OC1CCCC1 (stereo not drawn) [B288]
- MIC (H37RvMA): 91 µM (≈ 28.7 µg/mL)
- MIC (E. coli; [1]): 3 µM (≈ 0.947 µg/mL)
- MIC (E. coli; [2]): > 150 µM
- MIC (A. baumannii): 150 µM (≈ 47.3 µg/mL)

Compound: C=CCOc1ccccc1CNC(C)CC1CCCCC1 (stereo not drawn) [B289]
- MIC (H37RvMA): 150 µM (≈ 43.1 µg/mL)
- MIC (E. coli; [1]): 3 µM (≈ 0.862 µg/mL)
- MIC (E. coli; [2]): 91 µM (≈ 26.2 µg/mL)
- MIC (A. baumannii): 150 µM (≈ 43.1 µg/mL)

Compound: CC(CC1CCCCC1)NCc1ccccc1OCC(=O)N1CCCC1 (stereo not drawn) [B290]
- MIC (H37RvMA): > 150 µM
- MIC (E. coli; [1]): 33 µM (≈ 11.8 µg/mL)
- MIC (E. coli; [2]): > 150 µM
- MIC (A. baumannii): > 150 µM

Compound: CC(CC1CCCCC1)NCc1ccccc1OC(F)F (stereo not drawn) [B291]
- MIC (H37RvMA): > 150 µM
- MIC (E. coli; [1]): 12 µM (≈ 3.57 µg/mL)
- MIC (E. coli; [2]): 91 µM (≈ 27.1 µg/mL)
- MIC (A. baumannii): > 150 µM

Compound: CC(CC1CCCCC1)NCc1ccccc1OCc1cscn1 (stereo not drawn) [B292]
- MIC (H37RvMA): 150 µM (≈ 51.7 µg/mL)
- MIC (E. coli; [1]): 4 µM (≈ 1.38 µg/mL)
- MIC (E. coli; [2]): > 150 µM
- MIC (A. baumannii): > 150 µM

Compound: CCOc1ccccc1CNC(C)CC1CCCCC1 (stereo not drawn) [B293]
- MIC (H37RvMA): > 150 µM
- MIC (E. coli; [1]): 4 µM (≈ 1.1 µg/mL)
- MIC (E. coli; [2]): 150 µM (≈ 41.3 µg/mL)
- MIC (A. baumannii): > 150 µM

Compound: COCCOc1ccccc1CNC(C)CC1CCCCC1 (stereo not drawn) [B294]
- MIC (H37RvMA): > 150 µM
- MIC (E. coli; [1]): 7 µM (≈ 2.14 µg/mL)
- MIC (E. coli; [2]): > 150 µM
- MIC (A. baumannii): > 150 µM

Compound: CC(CC1CCCCC1)NCc1ccccc1OCc1ccccn1 (stereo not drawn) [B295]
- MIC (H37RvMA): 150 µM (≈ 50.8 µg/mL)
- MIC (E. coli; [1]): 4 µM (≈ 1.35 µg/mL)
- MIC (E. coli; [2]): > 150 µM
- MIC (A. baumannii): > 150 µM

Compound: CC(CC1CCCCC1)NCc1ccccc1OCc1cccnc1 (stereo not drawn) [B296]
- MIC (H37RvMA): > 150 µM
- MIC (E. coli; [1]): 7 µM (≈ 2.37 µg/mL)
- MIC (E. coli; [2]): 91 µM (≈ 30.8 µg/mL)
- MIC (A. baumannii): > 150 µM

Compound: CC(CC1CCCCC1)NCc1ccccc1OCC1CCCO1 (stereo not drawn) [B297]
- MIC (H37RvMA): > 150 µM
- MIC (E. coli; [1]): 7 µM (≈ 2.32 µg/mL)
- MIC (E. coli; [2]): > 150 µM
- MIC (A. baumannii): 150 µM (≈ 49.7 µg/mL)

Compound: CCOC(COc1ccccc1CNC(C)CC1CCCCC1)OCC (stereo not drawn) [B298]
- MIC (H37RvMA): > 150 µM
- MIC (E. coli; [1]): 12 µM (≈ 4.36 µg/mL)
- MIC (E. coli; [2]): > 150 µM
- MIC (A. baumannii): > 150 µM

Compound: CC(CC1CCCCC1)NCc1ccccc1OCCCS(C)(=O)=O (stereo not drawn) [B299]
- MIC (H37RvMA): > 150 µM
- MIC (E. coli; [1]): 4 µM (≈ 1.47 µg/mL)
- MIC (E. coli; [2]): 150 µM (≈ 55.1 µg/mL)
- MIC (A. baumannii): 150 µM (≈ 55.1 µg/mL)

Compound: CC(CC1CCCCC1)NCc1ccccc1OCc1cn(C)nn1 (stereo not drawn) [B300]
- MIC (H37RvMA): > 150 µM
- MIC (E. coli; [1]): 12 µM (≈ 4.11 µg/mL)
- MIC (E. coli; [2]): > 150 µM
- MIC (A. baumannii): > 150 µM

Compound: COCCOCCOc1ccccc1CNC(C)CC1CCCCC1 (stereo not drawn) [B301]
- MIC (H37RvMA): > 150 µM
- MIC (E. coli; [1]): 12 µM (≈ 4.19 µg/mL)
- MIC (E. coli; [2]): > 150 µM
- MIC (A. baumannii): > 150 µM

Compound: CC(CC1CCCCC1)NCc1ccccc1OCc1cc(Br)no1 (stereo not drawn) [B302]
- MIC (H37RvMA): 55 µM (≈ 22.4 µg/mL)
- MIC (E. coli; [1]): < 1 µM
- MIC (E. coli; [2]): 150 µM (≈ 61.1 µg/mL)
- MIC (A. baumannii): 150 µM (≈ 61.1 µg/mL)

Compound: COc1ccc(CNC(=O)COc2ccccc2CNC(C)CC2CCCCC2)cc1 (stereo not drawn) [B303]
- MIC (H37RvMA): 91 µM (≈ 38.6 µg/mL)
- MIC (E. coli; [1]): 7 µM (≈ 2.97 µg/mL)
- MIC (E. coli; [2]): > 150 µM
- MIC (A. baumannii): > 150 µM

Compound: CC(CC1CCCCC1)NCc1ccccc1OCCCOCC(F)(F)F (stereo not drawn) [B304]
- MIC (H37RvMA): 91 µM (≈ 35.3 µg/mL)
- MIC (E. coli; [1]): 3 µM (≈ 1.16 µg/mL)
- MIC (E. coli; [2]): > 150 µM
- MIC (A. baumannii): > 150 µM

Compound: CC(CC1CCCCC1)NCc1ccccc1OCCOCC(F)(F)F (stereo not drawn) [B305]
- MIC (H37RvMA): 150 µM (≈ 56 µg/mL)
- MIC (E. coli; [1]): 3 µM (≈ 1.12 µg/mL)
- MIC (E. coli; [2]): > 150 µM
- MIC (A. baumannii): 91 µM (≈ 34 µg/mL)

Compound: Cc1noc(C)c1COc1ccccc1CNC(C)CC1CCCCC1 (stereo not drawn) [B306]
- MIC (H37RvMA): > 150 µM
- MIC (E. coli; [1]): 12 µM (≈ 4.28 µg/mL)
- MIC (E. coli; [2]): > 150 µM
- MIC (A. baumannii): > 150 µM

Compound: CC(CC1CCCCC1)NCc1ccccc1OCCOC(C)(C)C (stereo not drawn) [B307]
- MIC (H37RvMA): 150 µM (≈ 52.1 µg/mL)
- MIC (E. coli; [1]): 20 µM (≈ 6.95 µg/mL)
- MIC (E. coli; [2]): > 150 µM
- MIC (A. baumannii): > 150 µM

Compound: COCC(C)NC(=O)NC(=O)COc1ccccc1CNC(C)CC1CCCCC1 (stereo not drawn) [B308]
- MIC (H37RvMA): > 150 µM
- MIC (E. coli; [1]): 4 µM (≈ 1.68 µg/mL)
- MIC (E. coli; [2]): > 150 µM
- MIC (A. baumannii): 150 µM (≈ 62.9 µg/mL)

Compound: CC(CC1CCCCC1)NCc1ccccc1OCC(=O)N1CCOCC1 (stereo not drawn) [B309]
- MIC (H37RvMA): > 150 µM
- MIC (E. coli; [1]): 33 µM (≈ 12.4 µg/mL)
- MIC (E. coli; [2]): > 150 µM
- MIC (A. baumannii): > 150 µM

Compound: CC(CC1CCCCC1)NCc1ccccc1OCc1ncccn1 (stereo not drawn) [B310]
- MIC (H37RvMA): > 150 µM
- MIC (E. coli; [1]): 55 µM (≈ 18.7 µg/mL)
- MIC (E. coli; [2]): > 150 µM
- MIC (A. baumannii): > 150 µM

Compound: CCOCOc1ccccc1CNC(C)CC1CCCCC1 (stereo not drawn) [B311]
- MIC (H37RvMA): > 150 µM
- MIC (E. coli; [1]): 7 µM (≈ 2.14 µg/mL)
- MIC (E. coli; [2]): > 150 µM
- MIC (A. baumannii): > 150 µM

Compound: COCCCOc1ccccc1CNC(C)CC1CCCCC1 (stereo not drawn) [B312]
- MIC (H37RvMA): > 150 µM
- MIC (E. coli; [1]): 7 µM (≈ 2.24 µg/mL)
- MIC (E. coli; [2]): > 150 µM
- MIC (A. baumannii): > 150 µM

Compound: CCOCCOc1ccccc1CNC(C)CC1CCCCC1 (stereo not drawn) [B313]
- MIC (H37RvMA): > 150 µM
- MIC (E. coli; [1]): 7 µM (≈ 2.24 µg/mL)
- MIC (E. coli; [2]): > 150 µM
- MIC (A. baumannii): > 150 µM

Compound: CCSCCOc1ccccc1CNC(C)CC1CCCCC1 (stereo not drawn) [B314]
- MIC (H37RvMA): 150 µM (≈ 50.3 µg/mL)
- MIC (E. coli; [1]): 4 µM (≈ 1.34 µg/mL)
- MIC (E. coli; [2]): 150 µM (≈ 50.3 µg/mL)
- MIC (A. baumannii): 91 µM (≈ 30.5 µg/mL)

Compound: CC(CC1CCCCC1)NCc1ccccc1OCCN(C)C (stereo not drawn) [B315]
- MIC (H37RvMA): > 150 µM
- MIC (E. coli; [1]): 150 µM (≈ 47.8 µg/mL)
- MIC (E. coli; [2]): 91 µM (≈ 29 µg/mL)
- MIC (A. baumannii): 150 µM (≈ 47.8 µg/mL)

Compound: CC(CC1CCCCC1)NCc1ccccc1OCC(=O)N1CCOC(C)C1 (stereo not drawn) [B316]
- MIC (H37RvMA): > 150 µM
- MIC (E. coli; [1]): 7 µM (≈ 2.72 µg/mL)
- MIC (E. coli; [2]): > 150 µM
- MIC (A. baumannii): > 150 µM

Compound: CC(CC1CCCCC1)NCc1ccccc1OCC(=O)NC(=O)NC1CCCC1 (stereo not drawn) [B317]
- MIC (H37RvMA): 55 µM (≈ 22.9 µg/mL)
- MIC (E. coli; [1]): 3 µM (≈ 1.25 µg/mL)
- MIC (E. coli; [2]): 91 µM (≈ 37.8 µg/mL)
- MIC (A. baumannii): 91 µM (≈ 37.8 µg/mL)
